Reference: publication PMC11238337, “Crafting Stable Antibiotic Nanoparticles via Complex Coacervation of Colistin with Block Copolymers” (Biomacromolecules, 2024)

Key:
trypsin = assay: Enzymatic breakdown susceptibility, SAXS read-out; settings: 24 h at 37 °C, enzyme:colistin ≈ 1:180
Experimental: (§3) The enzymatic breakdown susceptibility was analyzed by adding proteinase K (3.4.21.64; Sigma Aldrich), subtilisin (3.4.21.62; Sigma Aldrich), and trypsin (3.4.21.4; Sigma Aldrich) to either colistin (at 3.4 mg/mL) or C3Ms at f+ = 0.50 (total concentration 5.0 mg/mL) at their suppliers’ recommended concentration/ratio for optimized breakdown (molar ratios of enzyme:colistin ≈ 1:130 for proteinase K, ≈ 1:70 for subtilisin and ≈ 1:180 for trypsin). We assessed the difference in susceptibility between noncomplexed colistin and C3Ms. Colistin solution was incubated with enzymes for 24 h at 37 °C, after which polymer solution (kept 24 h at 37 °C) was added while in the other case, premade C3Ms were incubated with enzymes for 24 h at 37 °C. These samples were analyzed using SAXS and modeled, including enzyme scattering (using the Debye form factor since the scattering was too small to use a prolate/oblate ellipsoid form factor, eq 8) to monitor the molecular weight of the complex coacervates after exposure to enzyme degradation.

proteinase K = target: T1, proteinase K (Parengyodontium album, UniProt P06873); assay: Enzymatic breakdown susceptibility, SAXS read-out; assay type: in vitro ADME; settings: 24 h at 37 °C
T1 construct: purchased Sigma Aldrich
Experimental: as §3

E. coli = assay: Agar broth dilution testing for MIC50 (turbidity); assay type: cell-based, Escherichia coli; settings: LB liquid media, 0.0-50 μg/mL colistin, 24 h at 37 °C, McFarland turbidity, duplicate, sigmoid fit; all concentrations below the CMC
Experimental: (§1) In the DDA, the susceptibility of Escherichia coli (DSM613), Serratia indica (NCIMB 8869), Pseudomonas fluorescens (DSM20030), A. vinelandii (DSM2290), and Bacillus subtilis (DSM10) was tested. Sterile filter disks (VWR) were impregnated (using an automatic pipette) with 3.0 μg of colistin from either colistin sulfate or colistin-C3Ms (at f+ = 0.50) in a concentration above the CMC (at 1.0 mg/mL) and dried under sterile air. Bacterial plates were prepared by freshly pouring bacterial medium until it set. Second, a layer of LB medium, that was premixed with 10 μL of bacteria from overnight cultures, was added. Then, the disks were added, and the plates were incubated for 24 h at 37 °C. The sizes of the inhibition zones were measured and averaged. Experiments were performed in triplicate. With the agar broth dilution testing, it was possible to determine the MIC50 values. LB liquid media in test tubes containing equal amounts of E. coli culture (10 μL of bacteria from overnight cultures to 5 mL of media) was mixed with either colistin or colistin-C3Ms with equal colistin for a concentration between 0.0 and 50 μg/mL. The test tubes were incubated for 24 h at 37 °C and their turbidity was measured with a McFarland turbidimeter. The agar broth dilution experiments were done in duplicate. To determine the MIC50 values, curves were averaged and then fitted with a sigmoid function.

[1] = system: Mesenchymal stem cells (MSC); assay: Toxicity assay (LDH activity, caspase-3 level in medium); assay type: cell-based, human; settings: 24 h, 0.7 mg/mL colistin
Experimental: Human embryonic kidney (HEK 293 cells) (ATCC, CRL-1573) were cultured in Dulbecco’s modified Eagle medium (DMEM), low glucose (Sigma Aldrich) supplemented with 100 U/mL penicillin and 100 μg/mL streptomycin (15140-122; Gibco, Waltham), 1% GlutaMAX (35050; Gibco), and 20% fetal bovine serum (F9665; Sigma Aldrich). Mesenchymal stem cells (MSC, PT-2501; Lonza) were cultured in Mesenchymal Stem Cell Basel Medium (PT-3238; Lonza)) supplemented with MSCGM SingleQuots (PT-4105; Lonza). Human gingival keratinocytes (HGK) (PCS-200-014; ATCC) were cultured in Dermal Cell Basal Medium (PCS-200-030; ATCC) supplemented with Keratinocytes Growth Kit (PCS-200-040; ATCC). Human umbilical cord endothelial cells (HUVEC, 200p-05n; Cell Applications) were cultured in Endothelial Cell Growth Medium (211-500; Cell Applications). The cell types were seeded in 12-well culture-treated plates at a density of 4 × 10^4 cells/cm^2. Upon confluency (set at time point 0), the cells were exposed to cell-specific growth medium containing formulations with a concentration of 1.0 mg/mL total concentration (0.7 mg/mL colistin) of f+ = 0.50 C3Ms or equivalent concentrations of colistin, and polymer as a control. […] LDH activity in the cell culture media was evaluated using a cytotoxicity detection kit (11644793001; Roche). […]

[2] = system: Human embryonic kidney (HEK 293 cells); assay: as above; assay type: cell-based
Experimental: (§2) Human embryonic kidney (HEK 293 cells) (ATCC, CRL-1573) were cultured in Dulbecco’s modified Eagle medium (DMEM), low glucose (Sigma Aldrich) supplemented with 100 U/mL penicillin and 100 μg/mL streptomycin (15140-122; Gibco, Waltham), 1% GlutaMAX (35050; Gibco), and 20% fetal bovine serum (F9665; Sigma Aldrich). Mesenchymal stem cells (MSC, PT-2501; Lonza) were cultured in Mesenchymal Stem Cell Basel Medium (PT-3238; Lonza)) supplemented with MSCGM SingleQuots (PT-4105; Lonza). Human gingival keratinocytes (HGK) (PCS-200-014; ATCC) were cultured in Dermal Cell Basal Medium (PCS-200-030; ATCC) supplemented with Keratinocytes Growth Kit (PCS-200-040; ATCC). Human umbilical cord endothelial cells (HUVEC, 200p-05n; Cell Applications) were cultured in Endothelial Cell Growth Medium (211-500; Cell Applications). The cell types were seeded in 12-well culture-treated plates at a density of 4 × 10^4 cells/cm^2. Upon confluency (set at time point 0), the cells were exposed to cell-specific growth medium containing formulations with a concentration of 1.0 mg/mL total concentration (0.7 mg/mL colistin) of f+ = 0.50 C3Ms or equivalent concentrations of colistin, and polymer as a control. The medium was changed for both control cells and stimulated cells every two days, 24 h before the harvest of the medium to ensure the same window of accumulated cell-secreted factors in the media. Cytotoxicity assays on lactate dehydrogenase (LDH) activity and caspase-3 level were performed at 24, 48, and 72 h and executed in triplicate. LDH activity in the cell culture media was evaluated using a cytotoxicity detection kit (11644793001; Roche). In short, 50 μL of the collected supernatant was mixed with 50 μL of the reaction mixture and incubated in a dark room at room temperature for 30 min.

[3] = system: Human gingival keratinocytes (HGK); assay: as above; assay type: cell-based; settings: 24 h; 0.7 mg/mL colistin
Experimental: as §2

subtilisin = target: T2, subtilisin (Bacillus licheniformis, UniProt P00780); assay: Enzymatic breakdown susceptibility, SAXS read-out; assay type: in vitro ADME; settings: 24 h at 37 °C
T2 construct: purchased Sigma Aldrich
Experimental: as §3

[4] = system: Bacillus subtilis (DSM10); assay: Disk diffusion assay (DDA), control strain; assay type: cell-based; settings: 3.0 μg colistin per disk, 24 h at 37 °C; Gram-positive negative control
Experimental: as §1

[5] = system: Serratia indica (NCIMB 8869); assay: Disk diffusion assay (DDA); assay type: cell-based; settings: 3.0 μg colistin per disk, 24 h at 37 °C
Experimental: as §1

[6] = system: Pseudomonas fluorescens (DSM20030); assay: Disk diffusion assay (DDA); assay type: cell-based; settings: 3.0 μg colistin per disk, 24 h at 37 °C
Experimental: as §1

[7] = system: Escherichia coli (DSM613); assay: Disk diffusion assay (DDA); assay type: cell-based; settings: 3.0 μg colistin per disk, 24 h at 37 °C, triplicate, averaged
Experimental: as §1

A. vinelandii (DSM2290) = assay: Disk diffusion assay (DDA); assay type: cell-based; settings: 3.0 μg colistin per disk, 24 h at 37 °C
Experimental: as §1

T2 sequence (P00780 106-379): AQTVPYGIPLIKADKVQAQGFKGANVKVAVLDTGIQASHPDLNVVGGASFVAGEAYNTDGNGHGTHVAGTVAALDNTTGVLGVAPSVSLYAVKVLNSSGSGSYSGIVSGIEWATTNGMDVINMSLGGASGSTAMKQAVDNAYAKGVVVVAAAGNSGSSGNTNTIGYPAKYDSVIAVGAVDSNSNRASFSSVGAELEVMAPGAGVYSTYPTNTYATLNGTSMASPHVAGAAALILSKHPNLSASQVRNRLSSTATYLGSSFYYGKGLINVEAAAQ
T1 sequence (P06873 106-384): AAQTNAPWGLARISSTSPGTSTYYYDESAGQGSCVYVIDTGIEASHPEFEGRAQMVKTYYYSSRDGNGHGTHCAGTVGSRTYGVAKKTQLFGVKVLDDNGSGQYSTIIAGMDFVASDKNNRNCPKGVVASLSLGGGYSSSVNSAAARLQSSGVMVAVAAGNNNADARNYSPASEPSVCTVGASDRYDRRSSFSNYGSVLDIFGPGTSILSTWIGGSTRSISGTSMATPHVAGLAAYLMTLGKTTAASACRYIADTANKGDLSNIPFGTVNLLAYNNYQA

colistin sulfate
breakdown by trypsin, result in words (trypsin): ineffective in breaking down colistin
Mw of complex coacervates after proteinase K degradation (proteinase K; enzyme:colistin ≈ 1:130, colistin 3.4 mg/mL digested then complexed with polymer (without C3M protection) or premade C3Ms 5.0 mg/mL digested (with C3M protection), SAXS fit): 0.13 MDa
factor of reduction of average Mw of complex coacervates by proteinase K (proteinase K; versus untreated C3Ms): ≈ 20
MIC50 (E. coli): 1.5 ± 0.1 µg/mL
caspase-3 level versus control [1]: no significant difference
LDH activity, fold change of control ([1]; mean of 3): 2 fold
LDH activity versus control ([2]; 24, 48, 72 h, 0.7 mg/mL colistin): no significant differences
caspase-3 level, fold change of control ([2]; day one (24 h), 0.7 mg/mL colistin (1.0 mg/mL total for C3Ms), mean of 3): up to 3 fold
LDH (necrosis), result in words [3]: caused necrosis (LDH)
caspase-3 (apoptosis), result in words [3]: apoptosis (caspase-3)
Mw of complex coacervates after subtilisin degradation (subtilisin; enzyme:colistin ≈ 1:70, colistin 3.4 mg/mL digested then complexed with polymer (without C3M protection) or premade C3Ms 5.0 mg/mL digested (with C3M protection), SAXS fit): 0.042 MDa
factor of reduction of Mw of complex coacervates by subtilisin (subtilisin; versus untreated C3Ms): ≈ 50
inhibition zone, result in words [4]: no inhibition zones could be observed
inhibition zone, result in words [5]: grew back over the inhibition zones
inhibition zone, result in words [6]: not visibly affected
size of inhibition zone (ΔR) [7]: 1.9 ± 0.1 mm
inhibition zone, result in words (A. vinelandii (DSM2290)): immeasurable small inhibition zones
